In US20230082430A1 (C4 Therapeutics, Inc., priority 2019, published 2023):
pIC50: −log10 of the molar value.

Tested on: NCIH929.1 cells
Test: Cell viability assay for Table 2 (CellTiter-Glo 2.0, ATP quantification, 96 hr)
Format: cell-based
Settings: 96 h, NCIH929.1 cell viability, 96 hr, top concentration 1 μM, 14 points half log titration; read-out: IC50
Source text: Cell Viability Assay for Table 2
CellTiter-Glo® 2.0 Assay was purchased from Promega (Madison, Wis., USA). NCIH929.1 cell line was purchased from ATCC (Manassas, Va., USA). Cell culture flasks and 384-well microplates were acquired from VWR (Radnor, Pa., USA).

| SMILES | pIC50 |
| --- | --- |
| CC1(n2cc(Cc3ccc4c5c(cccc35)C(=O)N4C3CCC(=O)NC3=O)cn2)CCN(C(=O)C2(C#N)CC2)CC1 (stereo not drawn) [Compound 79, 1-(4-(4-((1-(2,6-dioxopiperidin-3-yl)-2-oxo-1,2-dihydrobenzo[cd]indol-6-yl)methyl)-1H-pyrazol-1-yl)-4-methylpiperidine-1-carbonyl)cyclopropane-1-carbonitrile] | > 9.00 |
| CC(C)(C#N)C(=O)N1CCC(C)(n2cc(Cc3ccc4c5c(cccc35)C(=O)N4C3CCC(=O)NC3=O)cn2)CC1 (stereo not drawn) [Compound 80, 3-(4-(4-((1-(2,6-dioxopiperidin-3-yl)-2-oxo-1,2-dihydrobenzo[cd]indol-6-yl)methyl)-1H-pyrazol-1-yl)-4-methylpiperidin-1-yl)-2,2-dimethyl-3-oxopropanenitrile] | > 9.00 |
| CC1(C(=O)N2CCC(C)(n3cc(Cc4ccc5c6c(cccc46)C(=O)N5C4CCC(=O)NC4=O)cn3)CC2)CCOCC1 (stereo not drawn) [Compound 81, 3-(6-((1-(4-methyl-1-(4-methyltetrahydro-2H-pyran-4-carbonyl)piperidin-4-yl)-1H-pyrazol-4-yl)methyl)-2-oxobenzo[cd]indol-1(2H)-yl)piperidine-2,6-dione] | > 9.00 |
| CC1(n2cc(Cc3ccc4c5c(cccc35)C(=O)N4C3CCC(=O)NC3=O)cn2)CCN(C(=O)C(C)(C)C(F)(F)F)CC1 (stereo not drawn) [Compound 82, 3-(6-((1-(4-methyl-1-(3,3,3-trifluoro-2,2-dimethylpropanoyl)piperidin-4-yl)-1H-pyrazol-4-yl)methyl)-2-oxobenzo[cd]indol-1(2H)-yl)piperidine-2,6-dione] | > 9.00 |
| CC1(C(=O)N2CCC(C)(n3cc(Cc4ccc5c6c(cccc46)C(=O)N5C4CCC(=O)NC4=O)cn3)CC2)CC1 (stereo not drawn) [Compound 83, 3-(6-((1-(4-methyl-1-(1-methylcyclopropane-1-carbonyl)piperidin-4-yl)-1H-pyrazol-4-yl)methyl)-2-oxobenzo[cd]indol-1(2H)-yl)piperidine-2,6-dione] | > 9.00 |
| COC(C)(C)C(=O)N1CCC(C)(n2cc(Cc3ccc4c5c(cccc35)C(=O)N4C3CCC(=O)NC3=O)cn2)CC1 (stereo not drawn) [Compound 84, 3-(6-((1-(1-(2-methoxy-2-methylpropanoyl)-4-methylpiperidin-4-yl)-1H-pyrazol-4-yl)methyl)-2-oxobenzo[cd]indol-1(2H)-yl)piperidine-2,6-dione] | > 9.00 |
| COCC(C)(C)C(=O)N1CCC(C)(n2cc(Cc3ccc4c5c(cccc35)C(=O)N4C3CCC(=O)NC3=O)cn2)CC1 (stereo not drawn) [Compound 85, 3-(6-((1-(1-(3-methoxy-2,2-dimethylpropanoyl)-4-methylpiperidin-4-yl)-1H-pyrazol-4-yl)methyl)-2-oxobenzo[cd]indol-1(2H)-yl)piperidine-2,6-dione] | > 9.00 |
| CC1(n2cc(Cc3ccc4c5c(cccc35)C(=O)N4C3CCC(=O)NC3=O)cn2)CCN(C(=O)C2(C#N)CCC2)CC1 (stereo not drawn) [Compound 86, 1-(4-(4-((1-(2,6-dioxopiperidin-3-yl)-2-oxo-1,2-dihydrobenzo[cd]indol-6-yl)methyl)-1H-pyrazol-1-yl)-4-methylpiperidine-1-carbonyl)cyclobutane-1-carbonitrile] | > 9.00 |
| CC12CC(C(=O)N3CCC(C)(n4cc(Cc5ccc6c7c(cccc57)C(=O)N6C5CCC(=O)NC5=O)cn4)CC3)(CCO1)C2 (stereo not drawn) [Compound 88, 3-(6-((1-(4-methyl-1-(1-methyl-2-oxabicyclo[3.1.1]heptane-5-carbonyl)piperidin-4-yl)-1H-pyrazol-4-yl)methyl)-2-oxobenzo[cd]indol-1(2H)-yl)piperidine-2,6-dione] | > 9.00 |
| CC1(n2cc(Cc3ccc4c5c(cccc35)C(=O)N4C3CCC(=O)NC3=O)cn2)CCN(C(=O)C23CCCC(C2)C3)CC1 (stereo not drawn) [Compound 89, 3-(6-((1-(1-(bicyclo[3.1.1]heptane-1-carbonyl)-4-methylpiperidin-4-yl)-1H-pyrazol-4-yl)methyl)-2-oxobenzo[cd]indol-1(2H)-yl)piperidine-2,6-dione] | > 9.00 |
| CC1(n2cc(Cc3ccc4c5c(cccc35)C(=O)N4C3CCC(=O)NC3=O)cn2)CCN(C(=O)C23CC(CO2)C3)CC1 (stereo not drawn) [Compound 90, 3-(6-((1-(1-(2-oxabicyclo[2.1.1]hexane-1-carbonyl)-4-methylpiperidin-4-yl)-1H-pyrazol-4-yl)methyl)-2-oxobenzo[cd]indol-1(2H)-yl)piperidine-2,6-dione] | > 9.00 |
| CC1(n2cc(Cc3ccc4c5c(cccc35)C(=O)N4C3CCC(=O)NC3=O)cn2)CCN(C(=O)C23CC(C2)C3)CC1 (stereo not drawn) [Compound 91, 3-(6-((1-(1-(bicyclo[1.1.1]pentane-1-carbonyl)-4-methylpiperidin-4-yl)-1H-pyrazol-4-yl)methyl)-2-oxobenzo[cd]indol-1(2H)-yl)piperidinc-2,6-dione] | > 9.00 |
| CC1(C(=O)N2CCC(C)(n3cc(Cc4ccc5c6c(cccc46)C(=O)N5C4CCC(=O)NC4=O)cn3)CC2)CCC1 (stereo not drawn) [Compound 92, 3-(6-((1-(4-methyl-1-(1-methylcyclobutane-1-carbonyl)piperidin-4-yl)-1H-pyrazol-4-yl)methyl)-2-oxobenzo[cd]indol-1(2H)-yl)piperidine-2,6-dione] | > 9.00 |
| CC(C)(C)C(=O)N1CCC(C)(n2cc(Cc3ccc4c5c(cccc35)C(=O)N4C3CCC(=O)NC3=O)cn2)CC1 (stereo not drawn) [Compound 93] | > 9.00 |
| CC1(C(=O)N2CCC(C)(n3cc(Cc4ccc5c6c(cccc46)C(=O)N5C4CCC(=O)NC4=O)cn3)CC2)COC1 (stereo not drawn) [Compound 94, 3-(6-((1-(4-methyl-1-(3-methyloxetane-3-carbonyl)piperidin-4-yl)-1H-pyrazol-4-yl)methyl)-2-oxobenzo[cd]indol-1(2H)-yl)piperidine-2,6-dione] | > 9.00 |
| CC(C)(CF)C(=O)N1CCC(C)(n2cc(Cc3ccc4c5c(cccc35)C(=O)N4C3CCC(=O)NC3=O)cn2)CC1 (stereo not drawn) [Compound 95, 3-(6-((1-(1-(3-fluoro-2,2-dimethylpropanoyl)-4-methylpiperidin-4-yl)-1H-pyrazol-4-yl)methyl)-2-oxobenzo[cd]indol-1(2H)-yl)piperidine-2,6-dione] | > 9.00 |
| CC(C)(F)C(=O)N1CCC(C)(n2cc(Cc3ccc4c5c(cccc35)C(=O)N4C3CCC(=O)NC3=O)cn2)CC1 (stereo not drawn) [Compound 96, 3-(6-((1-(1-(2-fluoro-2-methylpropanoyl)-4-methylpiperidin-4-yl)-1H-pyrazol-4-yl)methyl)-2-oxobenzo[cd]indol-1(2H)-yl)piperidine-2,6-dione] | > 9.00 |
| CC(C)(Cl)C(=O)N1CCC(C)(n2cc(Cc3ccc4c5c(cccc35)C(=O)N4C3CCC(=O)NC3=O)cn2)CC1 (stereo not drawn) [Compound 97, 3-(6-((1-(1-(2-chloro-2-methylpropanoyl)-4-methylpiperidin-4-yl)-1H-pyrazol-4-yl)methyl)-2-oxobenzo[cd]indol-1(2H)-yl)piperidine-2,6-dione] | > 9.00 |
| CC(C)(CO)C(=O)N1CCC(C)(n2cc(Cc3ccc4c5c(cccc35)C(=O)N4C3CCC(=O)NC3=O)cn2)CC1 (stereo not drawn) [Compound 98, 3-(6-((1-(1-(3-hydroxy-2,2-dimethylpropanoyl)-4-methylpiperidin-4-yl)-1H-pyrazol-4-yl)methyl)-2-oxobenzo[cd]indol-1(2H)-yl)piperidine-2,6-dione] | > 9.00 |
| CC1(CN2CCC(C)(n3cc(Cc4ccc5c6c(cccc46)C(=O)N5C4CCC(=O)NC4=O)cn3)CC2)CC1 (stereo not drawn) [Compound 100, 3-(6-((1-(4-methyl-1-((1-methylcyclopropyl)methyl)piperidin-4-yl)-1H-pyrazol-4-yl)methyl)-2-oxobenzo[cd]indol-1(2H)-yl)piperidine-2,6-dione] | > 9.00 |
| COC1(CN2CCC(C)(n3cc(Cc4ccc5c6c(cccc46)C(=O)N5C4CCC(=O)NC4=O)cn3)CC2)CC1 (stereo not drawn) [Compound 101, 3-(6-((1-(1-((1-methoxycyclopropyl)methyl)-4-methylpiperidin-4-yl)-1H-pyrazol-4-yl)methyl)-2-oxobenzo[cd]indol-1(2H)-yl)piperidine-2,6-dione] | > 9.00 |
| CC1(n2cc(Cc3ccc4c5c(cccc35)C(=O)N4C3CCC(=O)NC3=O)cn2)CCN(CC2(C#N)CC2)CC1 (stereo not drawn) [Compound 102, 1-((4-(4-((1-(2,6-dioxopiperidin-3-yl)-2-oxo-1,2-dihydrobenzo[cd]indol-6-yl)methyl)-1H-pyrazol-1-yl)-4-methylpiperidin-1-yl)methyl)cyclopropane-1-carbonitrile] | > 9.00 |
| COC1(CN2CCC(C)(n3cc(Cc4ccc5c6c(cccc46)C(=O)N5C4CCC(=O)NC4=O)cn3)CC2)CCC1 (stereo not drawn) [Compound 103, 3-(6-((1-(1-((1-methoxycyclobutyl)methyl)-4-methylpiperidin-4-yl)-1H-pyrazol-4-yl)methyl)-2-oxobenzo[cd]indol-1(2H)-yl)piperidine-2,6-dione] | > 9.00 |
| CC(C)(C)CN1CCC(C)(n2cc(Cc3ccc4c5c(cccc35)C(=O)N4C3CCC(=O)NC3=O)cn2)CC1 (stereo not drawn) [Compound 104, 3-(6-((1-(4-methyl-1-neopentylpiperidin-4-yl)-1H-pyrazol-4-yl)methyl)-2-oxobenzo[cd]indol-1(2H)-yl)piperidine-2,6-dione] | > 9.00 |
| CC1(n2cc(Cc3ccc4c5c(cccc35)C(=O)N4C3CCC(=O)NC3=O)cn2)CCN(CC2(C(F)(F)F)CC2)CC1 (stereo not drawn) [Compound 105, 3-(6-((1-(4-methyl-1-((1-(trifluoromethyl)cyclopropyl)methyl)piperidin-4-yl)-1H-pyrazol-4-yl)methyl)-2-oxobenzo[cd]indol-1(2H)-yl)piperidine-2,6-dione] | > 9.00 |
| CC1(n2cc(Cc3ccc4c5c(cccc35)C(=O)N4C3CCC(=O)NC3=O)cn2)CCN(CC2(F)CC2)CC1 (stereo not drawn) [Compound 106, 3-(6-((1-(1-((1-fluorocyclopropyl)methyl)-4-methylpiperidin-4-yl)-1H-pyrazol-4-yl)methyl)-2-oxobenzo[cd]indol-1(2H)-yl)piperidine-2,6-dione] | > 9.00 |
| CC(C)(C)OC(=O)N1CCN(Cc2ccc(Cc3ccc4c5c(cccc35)C(=O)N4C3CCC(=O)NC3=O)cc2)CC1 (stereo not drawn) [Compound 107, tert-butyl 4-(4-((1-(2,6-dioxopiperidin-3-yl)-2-oxo-1,2-dihydrobenzo[cd]indol-6-yl)methyl)benzyl)piperazine-1-carboxylate] | > 9.00 |
